Reference: US20160376263A1, “BITTER TASTE MODIFIERS INCLUDING SUBSTITUTED 1-BENZYL-3-(1-(ISOXAZOL-4-YLMETHYL)-1H-PYRAZOL-4-YL)IMIDAZOLIDINE-2,4-DIONES AND COMPOSITIONS THEREOF” (SENOMYX, INC., priority 2016, published 2016)

Tests used:
hT2R8 bitter receptor = target: T1, hT2R8 bitter receptor (Homo sapiens, UniProt Q9NYW2); experiment: hT2R8 bitter receptor inhibition; format: cell-based; conditions: read-out: IC50, inhibition of hT2R08 bitter receptor
T1 sequence (Q9NYW2 1-309): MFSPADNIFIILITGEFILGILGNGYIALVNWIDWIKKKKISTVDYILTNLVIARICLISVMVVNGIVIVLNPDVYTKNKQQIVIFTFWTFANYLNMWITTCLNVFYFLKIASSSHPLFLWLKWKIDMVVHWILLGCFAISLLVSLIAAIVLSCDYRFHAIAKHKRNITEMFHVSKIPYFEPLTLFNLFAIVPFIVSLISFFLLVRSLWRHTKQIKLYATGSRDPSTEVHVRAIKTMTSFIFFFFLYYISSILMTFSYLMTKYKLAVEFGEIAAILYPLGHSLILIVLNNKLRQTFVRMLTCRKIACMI

Cc1noc(C)c1Cn1cc(N2C(=O)N(Cc3cc(O)cc(O)c3)C(C)(C)C2=O)cn1 [Example 105]
IC50 (hT2R8 bitter receptor): 10 nM
melting point: 213 to 215 °C
